“Also recorded” adds a separate entry of the source.
Experiments:
KMS-34 cells = experiment: In vitro long-term proliferation (LTP) 14-day assay, KMS-34; format: cell-based, human; conditions: FIG. 2C, comparison of enantiomers
KMS11 TKO cells = experiment: In vitro long-term proliferation (LTP) 14-day assay, KMS11 TKO; format: cell-based, human; conditions: KMS11 TKO (non-translocated WHSC1 allele only), 14 days
Excerpt: In Vitro Long-Term Proliferation (LTP) Assay

H3K36me3 / H3K36me2 = experiment: Western blot of H3K36 methyl marks in KMS-34 cells; format: cell-based, human; conditions: KMS-34, after 14 days
Protocol: Cells were pelleted, washed with ice-cold 1×PBS, resuspended in ice-cold NP40 buffer, and incubated on ice for 30 minutes before sonication (Amplitude 30%/5 sec×1). […] Blots were imaged using the Odyssey Imaging System (LICOR Biosciences).

KMS11 tumors = format: in vivo
Protocol: NOD SCID mice received 1×10^7 cells (0.1 mL cell suspension) subcutaneously in the right flank. […] The maximal treatment length was 28 days. Tumor volumes (twice weekly) and body weight (daily) were recorded throughout the experiment. On day 7 or day 28 during the studies, mice were sampled in a pre-specified fashion. Sampling included nonterminal retro-orbital bleeds and full volume blood collection via terminal cardiac puncture under CO2 anesthesia. Blood samples were processed for plasma, with K2-EDTA as anticoagulant, and PBMCs isolated. The samples were frozen at −80° C. and stored before analysis. Tumors were harvested from specified mice under RNase-free conditions and snap frozen in liquid nitrogen. Bone marrow was flushed from the femur using 1×PBS, strained over a 40 um nylon strainer, and flash frozen. Histones were extracted from tumors, bone marrow, and PBMCs as previously described.
(§1) Fluorescent-Based ELISA Assay (Fluroimmunoassay (FIA) Detection of Anti-Histone H3 Tri-Methyl K36)
Histones were prepared in coating buffer and added directly to high-binding 96 well plates. Plates were left at 4° C. overnight to allow histones to adhere. […] Plates were imaged on the Odyssey Imaging System (LI-COR Biosciences) using both 700 nm and 800 nm channels. The average of the ratio values for each test sample was calculated by dividing the 800 nm (H3K36me3) value by the 700 nm value (total H3) and used to determine the percent of H3K36me3 from vehicle.

MM.1S tumors = experiment: MM.1S non-t(4;14) multiple myeloma xenograft; format: in vivo, CB17 SCID mice
Protocol: CB17 SCID mice were inoculated subcutaneously in the right flank with MM.1S tumor cells (5×10^6) in 0.2 mL of PBS mixed with Matrigel (50:50). After 18 days, mice bearing 100 to 150 mm^3 tumors were sorted into treatment groups with mean tumor volumes of 103 mm^3 (n=10 mice per group). […] The maximal treatment length was 23 days. Tumor volumes and body weight were recorded twice weekly throughout the experiment. On day 18 or day 41 during the studies, mice were sampled in a pre-specified fashion. Sampling included nonterminal retro-orbital bleeds and full volume blood collection via terminal cardiac puncture under CO2 anesthesia. Blood samples were processed for plasma, with K2-EDTA as anticoagulant, and PBMCs isolated. The samples were frozen at −80° C. and stored before analysis. Tumors were harvested from specified mice under RNase-free conditions and snap frozen in liquid nitrogen. Bone marrow was flushed from the femur using 1×PBS, strained over a 40 um nylon strainer, and flash frozen.
as §1
Histones were prepared in coating buffer and added directly to high-binding 96 well plates. […] The average of the ratio values for each test sample was calculated by dividing the 800 nm (H3K36me3) value by the 700 nm value (total H3) and used to determine the percent of H3K36me3 from vehicle.

[1] = mouse, in vivo
Protocol: Dose Range Finding Studies
(§2) All the procedures related to animal handling, care, and treatment in this study were performed according to the guidelines approved by the Institutional Animal Care and Use Committee of Pharmaron, Beijing, China and following the guidance of the Association for Assessment and Accreditation of Laboratory Animal Care.
(§3) Six to eight-week-old NOD SCID mice were purchased from Beijing HFK Bioscience Co., Ltd. Mice were housed in polycarbonate cages maintained at a temperature of (22+/−3° C.) and relative humidity of 40-70%. Animals had free access to sterile drinking water and irradiation sterilized dry granule food throughout the study.

[2] = 7-day dose range finding study in mice
Protocol: Dose Range Finding Studies
as §2, §3

CC(=O)N1CCN([C@H]2CCC[C@@H](NC(=O)c3cc4c(F)ccc(C)c4[nH]3)C2)CC1 [Cpd. No. 15, N-((1R,3S)-3-(4-acetylpiperazin-1-yl)cyclohexyl)-4-fluoro-7-methyl-1H-indole-2-carboxamide]
proliferation defects (KMS-34 cells): proliferation defects | proliferation effect (KMS11 TKO cells): no proliferation effects | H3K36me2 level (H3K36me3 / H3K36me2): unaffected; also recorded: remained unaltered | H3K36me3 level (H3K36me3 / H3K36me2): dose-dependent decrease; also recorded: reduced | effect on body weight (KMS11 tumors; 31.25 mg/kg and 62.5 mg/kg, 28 days BID): minimal effects on body weight | H3K36me3 in histones from tumor (fluorescent-based ELISA) (KMS11 tumors; day 28, all doses): complete reduction | tumor response (KMS11 tumors; oral, 28 days, dose-dependent): robust tumor growth regression | H3K36me3 in MM.1S tumor samples (fluorescent-based ELISA) (MM.1S tumors; BID oral dosing): reduction; also recorded: dose dependent decrease | body weight (MM.1S tumors; all doses, 23 continuous days BID): minimal body weight loss; also recorded: minimal changes in body weight | tolerability [1]: very well tolerated | body weight ([2]; 62.5 and 125 mg/kg BID, 7 days, versus vehicle control): No body weight loss | H3K36me3 levels in naïve bone marrow ([2]; oral dosing, 7-day study): substantial reduction

— patent US20230049113A1, “METHODS OF TREATING WHSC1-OVEREXPRESSING CANCERS BY INHIBITING SETD2” (priority 2018, published 2023)
